We go through 13 compounds from patent US4153695A, “Substituted 2,3-dihydro imidazo[1,2-c]pyrimidines” (priority 1978, dated 1979).

In assay [1] the test system is cutaneous Herpes simplex virus type 1. In words: Topical treatment of cutaneous Herpes simplex virus type 1 lesions on guinea pig back, final score (Table 1). The class given is in vivo, guinea pigs. The settings on record: lesions scored 0 to 4+. The protocol:
Three epilated areas on each guinea pig back were inoculated with approximately 1×10^5 plaque forming units of virus using a Sterneedle triggered 10 times for each area. Untreated guinea pigs so inoculated developed consistent rosette lesions in about 96 hours. All three areas on the back of each guinea pig were drug-treated and these compared with separate control animals which were treated with the particular vehicle employed for administering the drug. The positive control animals were treated with 0.5-1.0 percent phosphonoacetic acid (PAA) suspended in the same vehicle as the drug. Animals were inoculated on the morning of day 1 and treated on the afternoon of day 1. Two treatments per day were administered through day 5 for a total of 10 treatments. Hair was again epilated on day 5 and readings were begun then and taken daily through day 10. Lesions for each area were scored from 0 to 4+, which was a fully developed herpatic lesion with inflammation vesicles and pustules. An average score was then calculated for each drug for each day for the number of treated areas and control areas. Usually 3-6 guinea pigs were used per drug. After scoring, a final score or mean of means was calculated for drug-treated and for control areas. Table I which follows gives the results of determinations carried out as outlined above on compounds coming within the scope of this invention. In the table, column 1 gives the name of the drugs, column 2, the vehicle, column 3, the concentration; column 4, the number of animals used; and columns 5, the final score.

In assay [2] the test system is Herpes simplex virus type I and Herpes simplex virus type II. In words: Intravaginal treatment of Herpes simplex virus type I and type II infection in guinea pigs, final score (Table 2). It is filed as in vivo. The procedure:
A second in-vivo test against Herpes simplex virus type I and Herpes simplex virus type II was carried out as follows. Guinea pigs were inoculated intravaginally by swabing the vagina with an absorbent cotton swab containing 2×10^4 plaque forming units of the virus. Prior to the inoculation with the virus, the vagina was swabbed with physiological saline to remove potential virus inhibitors. Treatment was started four hours after inoculation and continued for four days. The drug in a suitable base was introduced into the vaginal area also with an absorbent cotton swab. Controls in which the vehicle only were swabbed were included. Beginning on day 5 after inoculation and continuing through day 10, each animal was examined and scored from 0 to 4+ for secretion, inflammation, vesiculation and necrosis, thus yielding a possible top score of +16 per guinea pig. In the table, column 1 gives the name of the compound; column 2, the vehicle; column 3, the concentration; column 4, the number of animals used; and columns 5, the final score.

The test system of the next assay is Herpes simplex virus. Description: In vitro plaque inhibition of Herpes simplex virus in BSC-1 or Hela cells (Table 3). To be noted: for inhibition at 3 µg/mL: read-out: PERCENT INHIBITION OF PLAQUES AT 3 mcg/ml; for inhibition at 25 µg/mL: read-out: PERCENT INHIBITION OF PLAQUES AT 25 mcg/ml; for inhibition at 100 µg/mL: 100 mcg/ml, read-out: PERCENT INHIBITION OF PLAQUES AT 100 mcg/ml; for inhibition at 6 µg/mL: read-out: PERCENT INHIBITION OF PLAQUES AT 6 mcg/ml; for inhibition at 12 µg/mL: read-out: PERCENT INHIBITION OF PLAQUES AT 12 mcg/ml; for PERCENT INHIBITION OF PLAQUES AT 50 mcg/ml / inhibition at 50 µg/mL: 50 mcg/ml; for inhibition at 50 µg/mL: read-out: PERCENT INHIBITION OF PLAQUES AT 50 mcg/ml. It is filed as cell-based. The protocol:
The compounds of this invention also have anti-viral activity in vitro against Herpes simplex virus.
African green monkey kidney cells (BSC-1) or Hela cells (5-3) were grown in 25 cc. Falcon flasks at 37° C. in medium 199 with 5 percent inactivated fetal bovine serum (FBS), penicillin (150 units 1 ml.) and streptomycin (150 mcg./ml.). When confluent monolayers were formed, the supernatant growth medium was removed and 0.3 ml. of an appropriate dilution of Herpes simplex virus was added to each flask. After adsorption for one hour at room temperature, the virus infected cell sheet was overlaid with a medium comprising one part of 1 percent Ionagar No. 2 and one part double strength medium 199 with FCS, (fetal calf serum) penicillin, and streptomycin and also containing drug at concentrations of 100, 50, 25, 12, 6 and 3 micrograms per milliliter (mcg./ml.). The flask containing no drug served as a control. The stock solutions of 2,3-dihydroimidazo[1,2-c]pyrimidine compounds were made up in dimethylsulfoxide dilution at a concentration of 10^4 mcg./ml. The flasks were incubated for 72 hours at 37° C. […] A solution of 10 percent formalin and 2 percent sodium acetate was added to each flask to inactivate the virus and fix the cell sheet to the surface of the flask. The virus plaques, irrespective of size, were counted after staining the surrounding cell areas with crystal violet. The plaque count was compared to the control count at each drug concentration. The activity of the test compound was expressed as percentage plaque inhibition. Table 3, which follows, embodies the results of these determinations. In the table, column 1 gives the name of the compound, columns 2 through 6, the percent inhibition of herpes simplex plaques at various mcg./ml. levels of drug.

Where [3] appears, read: vehicle R, 2.5 % conc., top score +16.
The mark [4] stands for this setting: 25 mcg/ml, 72 hours at 37° C., hydrochloride.
The mark [5] stands for this setting: 72 hours at 37° C., hydrochloride.
Setting [6] is: 72 h, 3 mcg/ml, 72 hours at 37° C.
[7] abbreviates: 72 h, 25 mcg/ml, 72 hours at 37° C.
The mark [8] stands for this setting: 72 h, 6 mcg/ml, 72 hours at 37° C.
The mark [9] stands for this setting: 72 h, 12 mcg/ml, 72 hours at 37° C.

“And” between values parts separate entries of the source, which are not always exact repeats. Identical values can stand only once. Counter-ions that a name gives are not always drawn. Like-named read-outs stand apart in the source and are kept apart here.

As to `CCC1=NC(Cl)=CC2=NCCN21.Cl` [5-Ethyl-7-chloro-2,3-dihydroimidazo[1,2-c]pyrimidine hydrochloride], the “Final Score” value in assay [1] (vehicle D, 1.0 % conc.) is 1.09; in assay [1] (vehicle D, 1.5 % conc.), 1.53; in assay [1] (vehicle D, 2.5 % conc.), 1.60; in assay [2] (setting [3]) it was 2.83. Also, the “PERCENT INHIBITION OF PLAQUES AT 25 mcg/ml” value in the assay with Herpes simplex virus (setting [4]) is listed as 33%. Besides, in the assay with Herpes simplex virus (setting [5]), the “PERCENT INHIBITION OF PLAQUES AT 50 mcg/ml” value came to 76%. The inhibition at 3 µg/mL in the assay on Herpes simplex virus (setting [6]) worked out at 0%. In addition, in the assay with Herpes simplex virus (setting [7]), the inhibition at 25 µg/mL came to 50%. The inhibition at 100 µg/mL in the assay on Herpes simplex virus (72 h, 72 hours at 37° C.) amounted to 100%.

`CNC1=CC2=NCCN2C(C)=N1` [5-methyl-7-methylamino-2,3-dihydroimidazo[1,2-c]pyrimidine dihydrochloride]: in the assay with Herpes simplex virus (setting [8]), the inhibition at 6 µg/mL amounted to 0%. Besides, the inhibition at 12 µg/mL in the assay on Herpes simplex virus (setting [9]) was found to be 0%. Besides, in the assay with Herpes simplex virus (setting [7]), the inhibition at 25 µg/mL was 27%. Moreover, in the assay with Herpes simplex virus (72 h, 72 hours at 37° C.), the inhibition at 50 µg/mL came to 18% and the inhibition at 100 µg/mL turned out to be 30%.

With `CC1=NC(N(C)Cc2ccccc2)=CC2=NCCN12` [N,5-dimethyl-7-benzylamino-2,3-dihydroimidazo[1,2-c]pyrimidine hydrochloride], the inhibition at 6 µg/mL in the assay on Herpes simplex virus (setting [8]) came to 0%. Besides, the inhibition at 12 µg/mL with Herpes simplex virus (setting [9]) amounted to 0%. Besides, the inhibition at 25 µg/mL in the assay with Herpes simplex virus (setting [7]) is 0%. Besides, in the assay on Herpes simplex virus (72 h, 72 hours at 37° C.), the inhibition at 50 µg/mL was found to be 0% and the inhibition at 100 µg/mL amounted to 9%.

With `CC1=NC(Cl)=CC2=NCCN12.Cl` [5-methyl-7-chloro-2,3-dihydroimidazo[1,2-c]pyrimidine hydrochloride], the “Final Score” value in assay [1] (vehicle B, 1.0 % conc.) worked out at 2.06; in assay [1] (vehicle D, 1.0 % conc.), 1.56; in assay [1] (vehicle K, 1.0 % conc.), 1.95; in assay [1] (vehicle R, 1.0 % conc.), 1.81; in assay [2] (vehicle C, 2.5 % conc., top score +16), 7.9; in assay [2] (vehicle D, 2.0 % conc., top score +16), 6.13. In assay [2] (vehicle R, 2.0 % conc., top score +16, hydrochloride), the “Final Score” value was 3.17 and 3.57. Moreover, the “PERCENT INHIBITION OF PLAQUES AT 50 mcg/ml” value in the assay on Herpes simplex virus (setting [5]) is 82%. The inhibition at 6 µg/mL with Herpes simplex virus (setting [8]) was found to be 0%. For the same compound, the inhibition at 12 µg/mL with Herpes simplex virus (setting [9]) stood at 0%. The inhibition at 50 µg/mL in the assay on Herpes simplex virus (72 h, 72 hours at 37° C.) was 85%.

As to `NC1=NC(Cl)=CC2=NCCN12` [5-Amino-7-chloro-2,3-dihydroimidazo[1,2-c]pyrimidine hydrochloride], the inhibition at 3 µg/mL with Herpes simplex virus (setting [6]) amounted to 0%. Besides, in the assay on Herpes simplex virus (setting [8]), the inhibition at 6 µg/mL was found to be 0%. Besides, the inhibition at 12 µg/mL in the assay on Herpes simplex virus (setting [9]) stood at 0%. Moreover, the inhibition at 25 µg/mL with Herpes simplex virus (setting [7]) came out at 0%. Further, in the assay on Herpes simplex virus (72 h, 72 hours at 37° C.), the inhibition at 50 µg/mL is 0% and the inhibition at 100 µg/mL came to 11%.

On to `Cl.O=[N+]([O-])C1=C(NCCCl)N=CN2CCN=C12` [7-(β-chloroethylamino)-8-nitro-2,3-dihydroimidazo[1,2-c]pyrimidine hydrochloride], for which, in assay [2] (setting [3]), the “Final Score” value amounted to 1.25. In the assay on Herpes simplex virus (72 h), the inhibition at 6 µg/mL worked out at 33%, the inhibition at 12 µg/mL is 41% and the inhibition at 25 µg/mL turned out to be 68%.

With `CC1=NC(N2CCCC2)=CC2=NCCN12` [5-methyl-7-pyrrolidino-2,3-dihydroimidazo[1,2-c]pyrimidine hydrochloride], the inhibition at 3 µg/mL with Herpes simplex virus (setting [6]) is 0%. In addition, the inhibition at 6 µg/mL with Herpes simplex virus (setting [8]) was 0%. In the assay on Herpes simplex virus (setting [9]), the inhibition at 12 µg/mL came out at 0%. Further, in the assay with Herpes simplex virus (setting [7]), the inhibition at 25 µg/mL worked out at 0%. In addition, in the assay on Herpes simplex virus (72 h, 72 hours at 37° C.), the inhibition at 50 µg/mL was determined as 0% and the inhibition at 100 µg/mL was determined as 7%.

Turning to `CSC1=NC(Cl)=C(c2ccccc2)C2=NCCN12.Cl` [5-Methylthio-7-chloro-8-phenyl-2,3-dihydroimidazo[1,2-c]pyrimidine hydrochloride], the “Final Score” value in assay [1] (vehicle D, 2.5 % conc.) came to 1.97. Besides, the “PERCENT INHIBITION OF PLAQUES AT 3 mcg/ml” value with Herpes simplex virus (3 mcg/ml, 72 hours at 37° C., hydrochloride) is 100% and 58%.

Regarding `CC1=NC(Cl)=CC2=NCC(c3ccccc3)N12` (racemic) [dl-3-phenyl-5-methyl-7-chloro-2,3-dihydroimidazo[1,2-c]pyrimidine hydrochloride], the “Final Score” value in assay [1] (vehicle D, 2.5 % conc.) came to 1.72. Moreover, in the assay with Herpes simplex virus (setting [4]), the “PERCENT INHIBITION OF PLAQUES AT 25 mcg/ml” value was 68%. For the same compound, in the assay on Herpes simplex virus (setting [5]), the “PERCENT INHIBITION OF PLAQUES AT 50 mcg/ml” value is reported as 95%. In addition, the inhibition at 3 µg/mL in the assay with Herpes simplex virus (setting [6]) is 0%. Also, the inhibition at 6 µg/mL with Herpes simplex virus (setting [8]) was 0%. Further, in the assay on Herpes simplex virus (setting [7]), the inhibition at 25 µg/mL stood at 78%. Also, in the assay with Herpes simplex virus (72 h, 72 hours at 37° C.), the inhibition at 50 µg/mL stood at 100%.

As to `CC1=NC(Cl)=CC2=NCC(C)N12` (racemic) [dl-3,5-dimethyl-7-chloro-2,3-dihydroimidazo[1,2-c]pyrimidine hydrochloride], in the assay with Herpes simplex virus (setting [8]), the inhibition at 6 µg/mL came out at 0%. Moreover, the inhibition at 12 µg/mL in the assay with Herpes simplex virus (setting [9]) was determined as 0%. The inhibition at 25 µg/mL in the assay with Herpes simplex virus (setting [7]) was 12%. For the same compound, in the assay with Herpes simplex virus (72 h, 72 hours at 37° C.), the inhibition at 50 µg/mL was determined as 74%.

As for `CSC1=NC(Cl)=CC2=NCC(c3ccccc3)N21` (racemic) [dl-3-phenyl-5-methylthio-7-chloro-2,3-dihydroimidazo[1,2-c]pyrimidine hydrochloride], the inhibition at 3 µg/mL turned out to be 23% in the assay with Herpes simplex virus (3 mcg/ml, high virus input (HV)) and 57% with Herpes simplex virus (3 mcg/ml, low virus input (LV)). The inhibition at 6 µg/mL is 84% in the assay on Herpes simplex virus (6 mcg/ml, high virus input (HV)) and 100% in the assay on Herpes simplex virus (6 mcg/ml, low virus input (LV)).

Consider `CC1=NC(Cl)=CC2=NC(c3ccccc3)CN12.Cl` (racemic) [2-phenyl-5-methyl-7-chloro-2,3-dihydroimidazo[1,2-c]pyrimidine hydrochloride], for which the “PERCENT INHIBITION OF PLAQUES AT 12 mcg/ml” value in the assay with Herpes simplex virus (12 mcg/ml, 72 hours at 37° C., hydrochloride) is 50%. For the same compound, the “PERCENT INHIBITION OF PLAQUES AT 25 mcg/ml” value with Herpes simplex virus (setting [4]) is on record as 83%. Further, the “PERCENT INHIBITION OF PLAQUES AT 50 mcg/ml” value in the assay with Herpes simplex virus (setting [5]) came out at 89%. The inhibition at 3 µg/mL in the assay with Herpes simplex virus (setting [6]) is 0%. Moreover, the inhibition at 12 µg/mL with Herpes simplex virus (setting [9]) stood at 41%. Also, the inhibition at 25 µg/mL with Herpes simplex virus (setting [7]) came to 87%. Also, the inhibition at 50 µg/mL with Herpes simplex virus (72 h, 72 hours at 37° C.) was 100%.

In the case of `CCCCCC1=NC(Cl)=CC2=NCCN21` [5-n-Amyl-7-chloro-2,3-dihydroimidazo[1,2-c]pyrimidine hydrochloride], the inhibition at 3 µg/mL with Herpes simplex virus (setting [6]) was found to be 0%. The inhibition at 6 µg/mL in the assay on Herpes simplex virus (setting [8]) was found to be 0%. In the assay with Herpes simplex virus (72 h, 72 hours at 37° C.), the inhibition at 50 µg/mL stood at 100%.
